# In a melting point compilation (Tetko et al.; mined from patent text by program, amines drawn as free bases though some values may be those of a salt):
row,SMILES,melting point [°C]
1,C/C=C/c1ccc2nc(Cl)c(S(N)(=O)=O)n2n1,225 to 229
2,NC(=O)OC1CCN(C(=O)Cn2c(=O)sc3ccc(Cl)cc32)CC1,210 to 212
3,CCCCCCc1nc2c(N)nc3ccccc3c2n1CCCCNS(C)(=O)=O,170 to 171
4,O=C(O)Cc1ccc2c(c1)C(=O)c1ccc(Cl)cc1CO2,188 to 190
5,N#Cc1c(Cl)cnc2cc(I)sc12,209 to 211
6,CCC(CC)Oc1nc(C)nc2c1[nH]c(=O)n2-c1c(C)cc(C)cc1C,159 to 160
7,CCOC(CBr)(OCC)c1ccc(OC)cc1,55 to 56
8,COc1cccc2c(Nc3ccccc3C)c(C(=O)C3CCCCC3)cnc12,115 to 117
9,CC(=O)c1ccc(S(=O)(=O)N2CCCC2)cc1,138 to 139
10,Cn1cc2c(nc(NC(=O)Nc3ccc(CC(=O)O)cc3)n3nc(-c4ccco4)nc23)n1,> 300
11,CCOC(=O)OCn1c(SCc2nccc3ccsc23)nc2ccccc21,90 to 92
12,CC1N=C(c2ccccc2F)c2cc(C#N)ccc2NC1=O (centres undefined),216
13,CCCn1c(=O)c2c(ncn2CC(O)CO)n(CCC)c1=O (centres undefined),88 to 91
14,CCOC(=O)C(C)(C)Oc1ccc(-c2ccc(CCNC(=O)c3ccc(F)cc3)cc2)cc1,135
15,CCCCCCCCCCCCCCCCSCC(CO)NC(=O)OC (centres undefined),55 to 56
16,N#Cc1ccc2[nH]cc(CCN)c2c1,102 to 105
17,N#Cc1c(-c2ccccc2)sc2c1CNCC2c1ccccc1 (centres undefined),160
18,CC(C)Oc1ccc(C2CCc3cccc(C(=O)O)c3N2)cc1 (centres undefined),166 to 167
19,COc1ccc(C2=NN(C3CCN(C(=O)CCCNC(=O)OC(C)(C)C)CC3)C(=O)[C@@H]3CC=CC[C@H]23)cc1OC,79 to 83
20,CCC1(CC)Cc2cc(OC)c(Cl)c(Cl)c2C1=O,118

row,SMILES,melting point [°C]
1,COC(=O)CCCCCOc1ccc(N=C=O)cc1,47 to 50
2,O=C(NC12CC3CC(CC(C3)C1)C2)OCCc1cccs1,67 to 69
3,CN(CCO)C(=O)Cn1nc(-c2ccccc2O)nc1-c1ccccc1O,101 to 104
4,Cc1ccc(S(=O)(=O)N2[C@@H](CCc3nc(C4CC4)no3)CC[C@H]2c2ccc(F)cc2)cc1 (racemic),129
5,O=[N+]([O-])c1cccnc1Oc1ccc2c(c1)OCC(c1ccccc1)O2 (centres undefined),< 60
6,Cn1cc(C2=C(c3c4n(c5ccccc35)CC(CN)CC4)C(=O)NC2=O)c2ccccc21 (centres undefined),160 to 165
7,CC(C)(C)c1cc(CC(C)(C)[N+](=O)[O-])cc(C(C)(C)C)c1O,101 to 104
8,O=C1[C@H]2CCC[C@H]2N(C(=O)CBr)c2ccccc2N1Cc1ccccc1F (relative stereo),198 to 200
9,CCOC(=O)COc1ccc(Cn2c(-c3ccc(C(F)(F)F)cc3)c(C)c3cc(OCc4ccccc4)ccc32)cc1,221
10,C=C(COc1cc(Cl)ccc1C=NNP(=O)(OCC)OCC)C(C)C,103 to 106
11,Cc1c(-c2ccccc2)oc2c(C(=O)NCCCN3CCN(c4ccccc4OC(F)(F)F)CC3)cccc2c1=O,103 to 112
12,COc1ncc(Oc2ccc(Cl)cc2)c2cc(C(N)=O)sc12,> 250
13,O=S(CC1CO1)c1ncc(Cl)cn1 (centres undefined),92
14,OC1(C2CCC(c3c(F)cccc3F)=N2)C=CC(c2ccccc2)=CC1 (centres undefined),217
15,CC(C)c1ccc2c(c1)NC(=O)CC(c1ccnc(C#N)c1)=N2,173 to 178
16,CCC(CC)(CC)C(=O)Nc1nn(C)c2c1sc1ncccc12,138 to 139
17,CCOC(=O)c1cn(CC(F)(F)F)c2c(C)cc(F)cc2c1=O,154 to 158
18,CCOc1nc2ccccc2nc1N(CC)C(=O)N1CCN(c2cc(C)cc(C)c2)CC1,142 to 144
19,CCn1ncc2c3[nH]nc4c3c(nc21)CCc1ccccc1-4,229 to 231
